Here are results for two molecules from the NIST ThermoML archive (doi:10.1016/j.fluid.2006.11.004).

The nature of this data set: xn = mol fraction of the nth substance listed. The following applies: 273.15 K, 111 kPa, Fluid (supercritical or subcritical phases), Flux Response Technology (based on capillary viscometry).

SMILES strings stand for the structures. Numbers after ± are expanded uncertainties.

With `O=C=O` [carbon dioxide] + FC(F)(Cl)Cl, the excess molar volume (x1 = 1) is reported as 0 ± 1e-07 m3/mol.

With `FC(F)(Cl)Cl` [dichlorodifluoromethane] + O=C=O, the excess molar volume by setting is: (x2 = 0) 0 ± 1e-07 m3/mol; (x2 = 0.0001) 0 ± 1e-07 m3/mol; (x2 = 0.113) 3.11e-05 ± 4.4e-06 m3/mol; (x2 = 0.236) 4.65e-05 ± 6.5e-06 m3/mol; (x2 = 0.362) 5.16e-05 ± 7.2e-06 m3/mol; (x2 = 0.48) 5.54e-05 ± 7.8e-06 m3/mol. Besides, the excess molar volume runs as follows: (x2 = 0.482) 4.91e-05 ± 6.9e-06 m3/mol; (x2 = 0.56) 5.6e-05 ± 7.8e-06 m3/mol; (x2 = 0.561) 5.24e-05 ± 7.3e-06 m3/mol; (x2 = 0.6) 5.03e-05 ± 7e-06 m3/mol; (x2 = 0.715) 5.03e-05 ± 7e-06 m3/mol; (x2 = 0.833) 3.21e-05 ± 4.5e-06 m3/mol.
